How the values were obtained:
[1] = target: T1, Rhodopsin kinase GRK7 (Homo sapiens) (UniProt Q8WTQ7); experiment: Inhibition of human GRK7 at 18.6 nM by HotSpot assay relative to control
T1 sequence (whole entry): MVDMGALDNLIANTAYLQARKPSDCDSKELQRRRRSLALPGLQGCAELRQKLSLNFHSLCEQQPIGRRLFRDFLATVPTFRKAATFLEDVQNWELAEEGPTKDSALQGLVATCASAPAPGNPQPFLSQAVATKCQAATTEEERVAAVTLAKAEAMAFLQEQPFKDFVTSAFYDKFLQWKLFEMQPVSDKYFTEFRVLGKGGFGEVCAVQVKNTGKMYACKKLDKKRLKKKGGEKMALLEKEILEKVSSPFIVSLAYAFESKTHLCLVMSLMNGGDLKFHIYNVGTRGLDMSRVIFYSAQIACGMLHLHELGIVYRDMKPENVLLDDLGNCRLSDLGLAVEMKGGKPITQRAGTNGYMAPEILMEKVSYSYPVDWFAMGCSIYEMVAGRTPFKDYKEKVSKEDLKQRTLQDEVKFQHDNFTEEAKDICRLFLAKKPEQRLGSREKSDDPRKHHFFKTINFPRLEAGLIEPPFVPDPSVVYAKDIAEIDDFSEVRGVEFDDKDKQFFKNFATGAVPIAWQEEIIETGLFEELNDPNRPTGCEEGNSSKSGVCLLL

[2] = target: MAP kinase-activated protein kinase 2 (Homo sapiens) (UniProt P49137); experiment: Inhibition of human MAPKAPK2 at 18.6 nM by HotSpot assay relative to control
Chain of MAP kinase-activated protein kinase 2 (Homo sapiens) (P49137 whole entry, looked up): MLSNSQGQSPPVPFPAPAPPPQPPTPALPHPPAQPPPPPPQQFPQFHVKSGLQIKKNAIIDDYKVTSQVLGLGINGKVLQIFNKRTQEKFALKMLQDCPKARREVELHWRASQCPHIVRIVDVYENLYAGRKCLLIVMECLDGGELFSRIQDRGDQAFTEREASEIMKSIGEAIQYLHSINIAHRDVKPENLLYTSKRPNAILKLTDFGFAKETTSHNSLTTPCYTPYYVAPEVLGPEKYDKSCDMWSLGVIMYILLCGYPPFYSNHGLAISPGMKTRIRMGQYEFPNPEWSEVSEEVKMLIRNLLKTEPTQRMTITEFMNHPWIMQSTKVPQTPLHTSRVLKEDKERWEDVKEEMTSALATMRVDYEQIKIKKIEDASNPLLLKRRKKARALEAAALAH

[3] = target: T2, Serine/threonine-protein kinase 17A (Homo sapiens) (UniProt Q9UEE5); experiment: Inhibition of human DRAK1 at 18.6 nM by HotSpot assay relative to control
T2 sequence (whole entry): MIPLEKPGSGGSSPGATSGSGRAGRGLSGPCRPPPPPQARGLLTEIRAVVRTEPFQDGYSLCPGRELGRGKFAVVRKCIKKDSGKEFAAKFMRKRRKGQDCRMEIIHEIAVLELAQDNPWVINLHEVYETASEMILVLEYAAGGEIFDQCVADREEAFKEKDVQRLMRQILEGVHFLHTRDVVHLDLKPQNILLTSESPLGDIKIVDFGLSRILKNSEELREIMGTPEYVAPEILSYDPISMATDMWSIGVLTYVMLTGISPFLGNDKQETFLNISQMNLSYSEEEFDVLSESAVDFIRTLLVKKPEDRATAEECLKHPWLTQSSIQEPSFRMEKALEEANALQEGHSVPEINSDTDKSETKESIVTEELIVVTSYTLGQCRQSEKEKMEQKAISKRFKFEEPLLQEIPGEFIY

[4] = target: CDK9/Cyclin K (Homo sapiens) (UniProt P50750+O75909); experiment: Inhibition of human CDK9/cyclin K at 18.6 nM by HotSpot assay relative to control; format: protein-complex assay
[5] = target: Tyrosine-protein kinase Fgr (Homo sapiens) (UniProt P09769); experiment: Inhibition of human FGR at 18.6 nM by HotSpot assay relative to control
[6] = target: Homeodomain-interacting protein kinase 2 (Homo sapiens) (UniProt Q9H2X6); experiment: Inhibition of human HIPK2 at 1.82 nM by HotSpot assay relative to control
Chain of Homeodomain-interacting protein kinase 2 (Homo sapiens) (Q9H2X6 whole entry, looked up): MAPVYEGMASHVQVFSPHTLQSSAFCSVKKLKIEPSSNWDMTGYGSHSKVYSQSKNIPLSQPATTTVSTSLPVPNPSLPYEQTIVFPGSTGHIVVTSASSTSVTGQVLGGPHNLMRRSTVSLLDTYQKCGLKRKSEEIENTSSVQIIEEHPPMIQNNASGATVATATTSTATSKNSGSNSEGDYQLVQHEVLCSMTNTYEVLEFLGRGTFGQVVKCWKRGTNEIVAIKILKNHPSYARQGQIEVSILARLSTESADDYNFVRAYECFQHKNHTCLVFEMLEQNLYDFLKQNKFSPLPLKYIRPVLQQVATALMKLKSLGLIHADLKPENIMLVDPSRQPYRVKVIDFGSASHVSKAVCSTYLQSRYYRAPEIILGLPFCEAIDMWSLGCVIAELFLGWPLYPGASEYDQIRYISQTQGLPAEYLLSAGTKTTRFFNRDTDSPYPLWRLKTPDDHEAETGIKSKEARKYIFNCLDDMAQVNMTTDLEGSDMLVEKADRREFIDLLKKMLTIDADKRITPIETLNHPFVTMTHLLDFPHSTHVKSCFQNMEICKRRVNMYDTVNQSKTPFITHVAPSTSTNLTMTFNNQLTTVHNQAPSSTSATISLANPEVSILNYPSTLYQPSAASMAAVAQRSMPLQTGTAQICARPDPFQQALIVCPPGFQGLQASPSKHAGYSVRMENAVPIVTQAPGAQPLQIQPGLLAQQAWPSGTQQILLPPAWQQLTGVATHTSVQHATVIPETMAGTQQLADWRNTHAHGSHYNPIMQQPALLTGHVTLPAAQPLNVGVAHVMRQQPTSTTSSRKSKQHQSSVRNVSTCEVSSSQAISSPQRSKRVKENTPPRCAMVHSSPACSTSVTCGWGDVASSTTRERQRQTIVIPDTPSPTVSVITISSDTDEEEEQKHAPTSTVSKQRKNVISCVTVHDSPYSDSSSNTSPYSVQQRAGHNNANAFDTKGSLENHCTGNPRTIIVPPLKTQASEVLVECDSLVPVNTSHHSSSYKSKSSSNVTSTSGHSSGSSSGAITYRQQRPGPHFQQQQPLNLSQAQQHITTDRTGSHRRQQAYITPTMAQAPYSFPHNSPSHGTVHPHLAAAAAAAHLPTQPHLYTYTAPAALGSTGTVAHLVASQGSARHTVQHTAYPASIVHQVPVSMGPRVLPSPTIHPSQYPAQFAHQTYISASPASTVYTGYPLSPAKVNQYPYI

[7] = target: T3, cGMP-dependent protein kinase 1 (Homo sapiens) (UniProt Q13976); experiment: Inhibition of human PKG1a at 1.82 nM by HotSpot assay relative to control
T3 sequence (whole entry): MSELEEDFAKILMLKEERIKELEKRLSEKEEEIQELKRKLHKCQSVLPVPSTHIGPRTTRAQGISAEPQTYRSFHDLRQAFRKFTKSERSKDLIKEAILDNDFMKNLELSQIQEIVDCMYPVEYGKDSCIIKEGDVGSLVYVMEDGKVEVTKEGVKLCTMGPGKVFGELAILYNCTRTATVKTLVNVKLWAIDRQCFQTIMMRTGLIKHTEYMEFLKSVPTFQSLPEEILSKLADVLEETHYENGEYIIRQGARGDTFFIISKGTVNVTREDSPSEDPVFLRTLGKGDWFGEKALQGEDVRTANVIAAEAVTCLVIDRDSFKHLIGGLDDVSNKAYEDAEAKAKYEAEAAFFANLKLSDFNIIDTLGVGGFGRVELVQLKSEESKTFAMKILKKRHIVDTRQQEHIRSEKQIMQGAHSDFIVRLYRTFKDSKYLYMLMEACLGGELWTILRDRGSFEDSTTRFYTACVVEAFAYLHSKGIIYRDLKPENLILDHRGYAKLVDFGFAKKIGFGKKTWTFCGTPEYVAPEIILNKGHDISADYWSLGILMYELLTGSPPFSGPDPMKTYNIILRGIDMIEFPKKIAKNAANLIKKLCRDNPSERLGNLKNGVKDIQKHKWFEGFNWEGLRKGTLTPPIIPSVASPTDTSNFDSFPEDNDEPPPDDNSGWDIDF

[8] = target: Receptor tyrosine-protein kinase erbB-2 (Homo sapiens) (UniProt P04626); experiment: Inhibition of human ERBB2 at 1.82 nM by HotSpot assay relative to control
Chain of Receptor tyrosine-protein kinase erbB-2 (Homo sapiens) (P04626 whole entry): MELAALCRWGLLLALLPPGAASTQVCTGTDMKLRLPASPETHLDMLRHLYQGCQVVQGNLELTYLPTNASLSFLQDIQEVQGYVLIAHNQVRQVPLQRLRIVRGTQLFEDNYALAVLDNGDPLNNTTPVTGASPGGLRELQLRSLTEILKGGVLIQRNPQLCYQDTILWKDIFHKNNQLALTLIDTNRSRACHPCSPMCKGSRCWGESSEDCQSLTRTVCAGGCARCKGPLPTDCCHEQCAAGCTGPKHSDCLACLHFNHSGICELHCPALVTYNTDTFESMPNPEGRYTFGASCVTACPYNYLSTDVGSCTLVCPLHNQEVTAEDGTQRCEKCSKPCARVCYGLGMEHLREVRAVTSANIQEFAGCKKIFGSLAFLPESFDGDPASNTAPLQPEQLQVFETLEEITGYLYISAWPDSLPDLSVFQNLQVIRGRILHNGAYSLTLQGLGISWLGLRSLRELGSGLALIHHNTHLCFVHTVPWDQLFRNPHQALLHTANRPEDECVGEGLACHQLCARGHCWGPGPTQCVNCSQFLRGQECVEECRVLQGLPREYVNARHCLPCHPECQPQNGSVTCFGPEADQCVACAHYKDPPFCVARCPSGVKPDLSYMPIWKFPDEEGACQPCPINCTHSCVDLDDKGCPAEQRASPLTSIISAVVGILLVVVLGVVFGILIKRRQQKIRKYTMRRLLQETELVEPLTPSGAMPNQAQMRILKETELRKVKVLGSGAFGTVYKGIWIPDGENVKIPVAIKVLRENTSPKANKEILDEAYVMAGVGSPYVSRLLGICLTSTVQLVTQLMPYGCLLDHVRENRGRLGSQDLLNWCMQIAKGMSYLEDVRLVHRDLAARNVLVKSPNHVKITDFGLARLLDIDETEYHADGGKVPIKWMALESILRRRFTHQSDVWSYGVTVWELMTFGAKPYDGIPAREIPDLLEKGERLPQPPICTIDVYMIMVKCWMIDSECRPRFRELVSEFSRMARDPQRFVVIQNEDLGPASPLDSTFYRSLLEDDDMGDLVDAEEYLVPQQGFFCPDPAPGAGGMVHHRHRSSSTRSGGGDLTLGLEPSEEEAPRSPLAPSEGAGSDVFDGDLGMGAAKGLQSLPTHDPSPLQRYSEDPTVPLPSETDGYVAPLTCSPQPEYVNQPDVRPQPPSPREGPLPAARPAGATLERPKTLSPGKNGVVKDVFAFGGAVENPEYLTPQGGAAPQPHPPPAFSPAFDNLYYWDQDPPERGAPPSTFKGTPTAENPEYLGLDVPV

[9] = target: SRSF protein kinase 3 (Homo sapiens) (UniProt Q9UPE1); experiment: Inhibition of human STK23 at 1.82 nM by HotSpot assay relative to control
Chain of SRSF protein kinase 3 (Homo sapiens) (Q9UPE1 whole entry): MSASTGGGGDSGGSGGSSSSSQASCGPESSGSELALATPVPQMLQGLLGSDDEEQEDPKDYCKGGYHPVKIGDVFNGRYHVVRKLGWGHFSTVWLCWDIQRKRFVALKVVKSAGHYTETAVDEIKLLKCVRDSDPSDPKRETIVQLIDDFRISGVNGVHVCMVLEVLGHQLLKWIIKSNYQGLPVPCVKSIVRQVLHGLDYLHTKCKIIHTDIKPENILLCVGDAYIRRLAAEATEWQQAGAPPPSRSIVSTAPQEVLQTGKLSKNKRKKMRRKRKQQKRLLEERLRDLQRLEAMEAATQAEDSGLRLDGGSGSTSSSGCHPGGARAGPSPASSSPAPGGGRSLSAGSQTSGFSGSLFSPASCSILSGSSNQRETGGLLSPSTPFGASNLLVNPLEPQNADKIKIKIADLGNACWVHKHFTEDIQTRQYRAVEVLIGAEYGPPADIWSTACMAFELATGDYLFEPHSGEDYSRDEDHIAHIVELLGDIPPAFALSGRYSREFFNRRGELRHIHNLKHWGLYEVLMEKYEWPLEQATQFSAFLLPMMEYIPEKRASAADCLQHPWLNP

[10] = target: Serine/threonine-protein kinase PLK3 (Homo sapiens) (UniProt Q9H4B4); experiment: Inhibition of human PLK3 at 1.82 nM by HotSpot assay relative to control
[11] = target: Serine/threonine-protein kinase N1 (Homo sapiens) (UniProt Q16512); experiment: Inhibition of human PRK1 at 1.82 nM by HotSpot assay relative to control
[12] = target: Insulin receptor-related protein (Homo sapiens) (UniProt P14616); experiment: Inhibition of human IRR at 1.82 nM by HotSpot assay relative to control
Chain of Insulin receptor-related protein (Homo sapiens) (P14616 27-742 limits assumed): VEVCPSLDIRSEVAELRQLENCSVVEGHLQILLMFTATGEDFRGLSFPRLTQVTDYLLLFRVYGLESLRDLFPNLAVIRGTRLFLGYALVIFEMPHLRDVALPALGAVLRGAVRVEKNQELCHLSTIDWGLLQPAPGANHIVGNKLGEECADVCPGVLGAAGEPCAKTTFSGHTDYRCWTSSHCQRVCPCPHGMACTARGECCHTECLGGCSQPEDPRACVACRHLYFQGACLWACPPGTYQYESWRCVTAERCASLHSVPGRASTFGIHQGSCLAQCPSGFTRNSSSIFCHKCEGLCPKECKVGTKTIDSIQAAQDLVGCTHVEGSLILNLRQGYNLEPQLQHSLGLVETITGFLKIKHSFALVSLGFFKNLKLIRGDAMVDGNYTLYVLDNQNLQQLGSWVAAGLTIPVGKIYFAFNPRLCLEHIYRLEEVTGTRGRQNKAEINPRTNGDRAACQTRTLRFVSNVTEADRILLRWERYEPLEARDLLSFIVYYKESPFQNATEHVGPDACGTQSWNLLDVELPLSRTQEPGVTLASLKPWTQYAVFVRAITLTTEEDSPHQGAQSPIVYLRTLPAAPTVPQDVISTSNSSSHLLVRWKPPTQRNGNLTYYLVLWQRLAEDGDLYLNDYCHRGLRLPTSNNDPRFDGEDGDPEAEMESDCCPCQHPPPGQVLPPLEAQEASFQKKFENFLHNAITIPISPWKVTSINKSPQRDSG
Chain of Insulin receptor-related protein (Homo sapiens) (P14616 747-1297 limits assumed): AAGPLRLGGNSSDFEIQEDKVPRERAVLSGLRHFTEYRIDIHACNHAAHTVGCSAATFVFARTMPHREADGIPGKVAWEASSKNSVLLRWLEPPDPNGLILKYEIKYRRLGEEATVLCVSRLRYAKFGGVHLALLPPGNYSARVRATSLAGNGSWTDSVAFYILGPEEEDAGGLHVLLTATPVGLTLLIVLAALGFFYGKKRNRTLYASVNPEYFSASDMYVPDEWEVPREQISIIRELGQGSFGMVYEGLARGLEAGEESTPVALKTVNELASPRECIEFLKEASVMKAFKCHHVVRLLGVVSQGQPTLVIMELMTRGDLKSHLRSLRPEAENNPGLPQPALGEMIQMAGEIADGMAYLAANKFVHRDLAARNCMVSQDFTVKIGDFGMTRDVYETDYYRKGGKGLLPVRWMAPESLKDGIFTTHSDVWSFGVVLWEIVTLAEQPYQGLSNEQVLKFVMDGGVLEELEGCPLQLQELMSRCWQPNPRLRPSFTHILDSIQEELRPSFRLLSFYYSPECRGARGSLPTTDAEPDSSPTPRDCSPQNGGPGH

inhibition [1] [%]	inhibition [2] [%]	inhibition [3] [%]	inhibition [4] [%]	inhibition [5] [%]	inhibition [6] [%]	inhibition [7] [%]	inhibition [8] [%]	inhibition [9] [%]	inhibition [10] [%]	inhibition [11] [%]	inhibition [12] [%]	Structure (SMILES)
0.1	5.71	0.05	1.45	-9.34	–	–	–	–	–	–	–	C[C@]1(O)C[C@@H](c2nc(-c3ccc4ccc(-c5ccccc5)nc4c3)c3c(N)nccn32)C1
–	–	–	–	–	3.96	5.76	5.5	-7.78	2.72	-8.35	33.5	C[C@@]1(C(=O)Nc2ccc(F)nc2)CCCN1c1nc(Nc2cc(C3CC3)n[nH]2)c2cccn2n1

From ChEMBL document CHEMBL5653615 (J Biol Chem, 2013)
